Results on nine compounds are retold here after US20260285853A1, “COMPOUNDS AND METHODS FOR MODULATING SPLICING” (REMIX THERAPEUTICS INC., priority 2023, published 2026).

SMILES strings stand for the structures. pIC50: −log10 of the molar value.

Common to all, as to format: cell-based
Test [1] deals with SH-SY5Y (human neuroblastoma) cells. Nature of the test: Cell viability, Cell Titer Glo 2.0 assay. To be noted: read-out: Viability SHSY5Y.3 GI50. In outline:
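SH-SY5Y neuroblastoma cells are exposed to test compounds for 72 hours at 37 °C and 5% CO2, with final DMSO held at 0.1%. Cell viability is then measured with the CellTiter-Glo 2.0 assay.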

Test [2] deals with MYB mRNA. Nature of the test: Splicing RT-qPCR assay (THP), Table 2A. To be noted: Table 2A (THP); for AC50: AJ mRNA increase, read-out: MYB AJ (increase in alternative junction mRNA, AC50); for pIC50: CJ mRNA decrease, read-out: MYB CJ (decrease in canonical junction mRNA, IC50).
In test [3] the test system is MYB mRNA. Nature of the test: Gene panel canonical junction qPCR assay, decrease in CJ mRNA, Table 3. To be noted: decrease in canonical junction (CJ) mRNA, gene panel qPCR, Table 3. In outline:
(§1)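 A673 cells were plated, left to adhere for 24 h, then dosed; K562 cells were plated in 96- or 384-well format and dosed directly. Both were incubated 24 h at 37 °C with an 11-point 3-fold series (top 10 uM final). Canonical junction mRNA was then read by cDNA synthesis and qPCR.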
(Real-time PCR tracks product formation cycle by cycle.)

In test [4] the test system is HTT mRNA. The description is as above. To be noted: decrease in canonical junction (CJ) mRNA, gene panel qPCR, Table 3. The method, boiled down:
as §1

Test [5] concerns SMN2 mRNA. Described as above. To be noted: decrease in canonical junction (CJ) mRNA, gene panel qPCR, Table 3. The method, boiled down:
as §1

Test [6] concerns MYB mRNA. Put plainly: Splicing RT-qPCR assay, canonical (CJ) and alternative (AJ) junction mRNA, K562 cells. To be noted: Homo sapiens, K562.3 cells, 24 hours; for AC50: read-out: MYB AJ (AC50, increase in AJ mRNA); for pIC50: read-out: MYB CJ (IC50, decrease in CJ mRNA). The protocol:
(§2) Compounds described herein were used to modulate RNA transcript abundance in cells. The expression of a target mRNA was measured by detecting the formation of an exon-exon junction in the canonical transcript (CJ). A compound mediated exon-inclusion event was detected by observing an increase in formation of a new junction with an alternative exon (AJ). Real-time qPCR assays were used to detect these splicing switches and interrogate the potency of various compounds towards different target genes. A high-throughput real time quantitative PCR (RT-qPCR) assay was developed to measure these two isoforms of the mRNA (CJ and AJ) for exemplary genes, such as HTT, SMN2, and MYB, together with a control housekeeping gene, GAPDH or GUSB or PPIA, used for normalization. Briefly, the A673 or K562 cell line was treated with various compounds described herein (e.g., compounds of Formula (I)). After treatment, the levels of the HTT, MYB, or SMN2 mRNA targets were determined from each sample of cell lysate by cDNA synthesis followed by qPCR.
(§3) • Cells-to-CT 1-step kit: ThermoFisher A25602, Cells-to-CT lysis reagent: ThermoFisher 4391851C, TaqMan™ Fast Virus 1-Step Master Mix: ThermoFisher 4444436 • GAPDH: VIC-PL, ThermoFisher 4326317E (Assay: Hs99999905_m1)—used for K562/suspension cell lines • GUSB: VIC-PL, ThermoFisher 4326320E (Assay: Hs99999908_m1)—used for K562/suspension cell lines • PPIA: VIC-PL, ThermoFisher 4326316E (Assay: Hs99999904_m1)—used for A673/adherent cell lines
(§4) The K562 cell line was cultured in IMDM with 10% FBS. For K562, cells were diluted with full growth media and plated in either a 96-well plate (50,000 cells in 50 uL media per well) or a 384-well plate (8,000-40,000 cells in 45 uL media per well). An 11-point 3-fold serial dilution of the compounds were made in DMSO then diluted in media in an intermediate plate. Compound was transferred from the intermediate plate to the cell plate with the top dose at a final concentration of 10 uM in the well. Final DMSO concentration was kept at or below 0.25%. Final volume was 100 uL for 96-well plate and 50 uL for 384-well plate. The cell plate was then placed in an incubator at 37° C. with 5% CO2 for 24 hours.
(§5) The cells were then gently washed with 50 uL-100 uL cold PBS before proceeding to addition of lysis buffer. 30 uL-50 uL of room temperature lysis buffer with DNAse I (and optionally RNAsin) was added to each well. Cells were shaken/mixed thoroughly at room temperature for 5-10 minutes for lysis to take place and then 3 uL-5 uL of room temperature stop solution was added and wells were shaken/mixed again. After 2-5 minutes, the cell lysate plate was transferred to ice for RT-qPCR reaction setup. The lysates could also be frozen at −80° C. for later use.
(§6) In some cases, a direct lysis buffer was used. An appropriate volume of 3× lysis buffer (10 mM Tris, 150 mM NaCl, 1.5%-2.5% Igepal and 0.1-1 U/uL RNAsin, pH 7.4) was directly added to either K562 or A673 cells in media and mixed by pipetting 3 times. The plates were then incubated at room temperature with shaking/rocking for 20-50 minutes to allow for lysis to take place. After this time, the cell lysate plate was transferred to ice to set up for the RT-qPCR reactions. The lysates could also be frozen at −80° C. for later use.
(§7) To set up 10 uL RT-qPCR reactions, cell lysates were transferred to 384-well qPCR plates containing the master mix according to the table below. The plates were sealed, gently vortexed, and spun down before the run. The volumes were adjusted accordingly in some instances where the reaction was carried in 20 uL. The table below summarizes the components of the RT-qPCR reactions:
(§8) The RT-qPCR reaction was performed using a QuantStudio (ThermoFisher) under the following fast cycling conditions. All samples and standards were analyzed at least in duplicate. In some instances, bulk room temperature (RT) step of 5-10 minutes was completed for all plates before proceeding with qPCR. […]

Test [7] concerns HTT mRNA. The test is described as above. To be noted: Homo sapiens, K562.3 cells, 24 hours; for AC50: read-out: HTT AJ (AC50, increase in AJ mRNA); for pIC50: read-out: HTT CJ (IC50, decrease in CJ mRNA). On the procedure: as §2, §3, §4, §5, §6, §7, §8

On to `Cc1cn2cc(NC(=O)c3ccc(N4CC[C@@H](NCC5COC5)C4)c4cn(C)nc34)cc(F)c2n1` [Compound 104, N-(8-fluoro-2-methylimidazo[1,2-a]pyridin-6-yl)-2-methyl-4-[(3R)-3-[(oxetan-3-ylmethyl)amino]pyrrolidin-1-yl]indazole-7-carboxamide], for which the concentration for 50% growth inhibition (GI50) (as a rule, the concentration giving 50% growth inhibition) in test [1] is 100 to 1000 nM. The figures for the concentration at half-maximal activity (AC50) in test [2], in test [6] and in test [7] were below 100 nM, below 100 nM and 1000 to 10000 nM, respectively. Besides, the pIC50 (usually the negative decadic logarithm of the IC50, by convention in mol/L) was above 7.00 in test [2]; above 7.00 in test [3]; 5.00 to 6.00 in test [4]; above 7.00 in test [5]; above 7.00 in test [6]; 5.00 to 6.00 in test [7].

Turning to `Cc1cn2cc(NC(=O)c3ccc(N4CC[C@H](NCC(C)(C)O)C4)c4cn(C)nc34)cc(F)c2n1` [Compound 132, N-(8-fluoro-2-methyl-imidazo[1,2-a]pyridin-6-yl)-4-[(3S)-3-[(2-hydroxy-2-methylpropyl)amino]-pyrrolidin-1-yl]-2-methyl-indazole-7-carboxamide], the 50% growth inhibitory concentration (GI50) in test [1] lay in the range of 1000 to 10000 nM. The concentration at half-maximal activity (AC50) (commonly the concentration at which the activity in the assay is half-maximal) in test [2] was 100 to 1000 nM; in test [6], 100 to 1000 nM; in test [7], above 10000 nM. Further, the pIC50 in test [2] is 6.00 to 7.00; in test [3], 6.00 to 7.00; in test [4], 5.00 to 6.00; in test [5], above 7.00; in test [6], 6.00 to 7.00; in test [7], 5.00 to 6.00.

For the compound `CNC12CC(C1)N(c1ccc(C(=O)Nc3cc(F)c4nc(C)cn4c3)c3nn(C)cc13)C2` [Compound 135, N-(8-fluoro-2-methyl-imidazo[1,2-a]pyridin-6-yl)-2-methyl-4-[4-(methylamino)-2-azabicyclo[2.1.1]hexan-2-yl]-indazole-7-carboxamide], in test [1], the 50% growth inhibitory concentration (GI50) is 100 to 1000 nM. Also, the AC50 in test [2] is below 100 nM; in test [6], 100 to 1000 nM; in test [7], 1000 to 10000 nM. The negative logarithm of the IC50 (pIC50) in test [2] is 6.00 to 7.00; in test [3], 6.00 to 7.00; in test [4] it was 6.00 to 7.00; in test [5], above 7.00; in test [6], 6.00 to 7.00; in test [7], 6.00 to 7.00.

On to `CCNC12CC(C1)N(c1ccc(C(=O)Nc3cc(F)c4nc(C)cn4c3)c3nn(C)cc13)C2` [Compound 136, 4-[4-(ethylamino)-2-azabicyclo-[2.1.1]hexan-2-yl]N-(8-fluoro-2-methylimidazo[1,2-a]pyridin-6-yl)-2-methyl-indazole-7-carboxamide], for which the GI50 in test [1] lay within 100 to 1000 nM. In addition, the concentration at half-maximal activity (AC50) was 100 to 1000 nM in test [2], 100 to 1000 nM in test [6] and 1000 to 10000 nM in test [7]. The pIC50 in test [2] was 6.00 to 7.00; in test [3] it was 6.00 to 7.00; in test [4], 5.00 to 6.00; in test [5], above 7.00; in test [6], 6.00 to 7.00; in test [7], 5.00 to 6.00.

Take `CN[C@H]1CCN(c2c(OC)cc(C(=O)Nc3cc(F)c4nc(C)cn4c3)c3nn(C)cc23)C1` [Compound 137, N-(8-fluoro-2-methyl-imidazo[1,2-a]pyridin-6-yl)-5-methoxy-2-methyl-4-[(3S)-3-(methylamino)pyrrolidin-1-yl]indazole-7-carboxamide]: in test [1], the concentration for 50% growth inhibition (GI50) lay in the range of 1000 to 10000 nM. For the same compound, the AC50 in test [2], in test [6] and in test [7] was above 10000 nM in each case. The negative-log IC50 (pIC50) in test [2] is below 5.00; in test [3], below 5.00; in test [4] it was below 5.00; in test [5], 6.00 to 7.00; in test [6], below 5.00; in test [7], below 5.00.

For `CN[C@@H]1CCN(c2ccc(C(=O)Nc3cc(F)c4nn(C)cc4c3)c3nn(C)cc23)C1` [Compound 140, N-(7-fluoro-2-methyl-indazol-5-yl)-2-methyl-4-[(3R)-3-(methylamino)pyrrolidin-1-yl]indazole-7-carboxamide], the concentration for 50% growth inhibition (GI50) in test [1] was in the range of 1000 to 10000 nM. Moreover, the AC50 in test [2] was in the range of 100 to 1000 nM; in test [6], 100 to 1000 nM; in test [7], 1000 to 10000 nM. The pIC50 in test [2] is 6.00 to 7.00; in test [3], 6.00 to 7.00; in test [4] it was 5.00 to 6.00; in test [5], above 7.00; in test [6], 6.00 to 7.00; in test [7] it was 5.00 to 6.00.

With `CCN[C@H]1CCN(c2cc(O)c(C(=O)Nc3cc(F)c4nc(C)cn4c3)c3nn(C)cc23)C1` [Compound 143, 4-[(3S)-3-(ethylamino)pyrrolidin-1-yl]-N-(8-fluoro-2-methyl-imidazo[1,2-a]pyridin-6-yl)-6-hydroxy-2-methyl-indazole-7-carboxamide], the concentration for 50% growth inhibition (GI50) in test [1] is 100 to 1000 nM. The results for the AC50 in test [2], in test [6] and in test [7] were below 100 nM, below 100 nM and 1000 to 10000 nM, respectively. Further, the pIC50 was above 7.00 in test [2]; above 7.00 in test [3]; 5.00 to 6.00 in test [4]; above 7.00 in test [5]; above 7.00 in test [6]; 5.00 to 6.00 in test [7].

Take `CCN[C@H]1CCN(c2cc(OC)c(C(=O)Nc3cc(F)c4nc(C)cn4c3)c3nn(C)cc23)C1` [Compound 146]: the GI50 in test [1] is above 10000 nM. Also, the AC50 in test [2], in test [6] and in test [7] was above 10000 nM each time. Further, the pIC50 in test [2] was below 5.00; in test [3], below 5.00; in test [4], below 5.00; in test [5] it was 5.00 to 6.00; in test [6], below 5.00; in test [7], below 5.00.

On to `Cc1cn2cc(NC(=O)c3ccc(N4CCC5NCCC5C4)c4cn(C)nc34)cc(F)c2n1` (stereo not drawn) [Compound 169, N-(8-fluoro-2-methyl-imidazo[1,2-a]-pyridin-6-yl)-2-methyl-4-(octahydro-pyrrolo[3,2-c]pyridin-5-yl)indazole-7-carboxamide 2,2,2-trifluoroacetate], for which, in test [1], the GI50 lay within 1000 to 10000 nM. Besides, the values for the AC50 in test [2], in test [6] and in test [7] were below 100 nM, 100 to 1000 nM and 1000 to 10000 nM, respectively. In addition, the pIC50 was 6.00 to 7.00 in test [2]; 6.00 to 7.00 in test [3]; 5.00 to 6.00 in test [4]; above 7.00 in test [5]; 6.00 to 7.00 in test [6]; 5.00 to 6.00 in test [7].
